Reference: US5658924A, “1,8-naphthyridin-2-one derivative and use thereof” (The Green Cross Corporation, priority 1995, dated 1997)

What was measured:
PDE isozyme III = molecular target: T1, PDE isozyme III (Sus scrofa, UniProt I3L6S5); assay: Inhibition of PDE (isozyme III); format: biochemical; details: pig ventricular muscle, [3H]-cAMP substrate; read-out: PDE Inhibitory activity (IC5 :μM), PDE isozyme III
T1 construct: centrifugation supernatant of the homogenate of pig ventricular muscle; from tissue; host or cells: pig ventricular muscle, supernatant of homogenate, DEAE-cellulose fraction
T1 sequence (I3L6S5 1-1145): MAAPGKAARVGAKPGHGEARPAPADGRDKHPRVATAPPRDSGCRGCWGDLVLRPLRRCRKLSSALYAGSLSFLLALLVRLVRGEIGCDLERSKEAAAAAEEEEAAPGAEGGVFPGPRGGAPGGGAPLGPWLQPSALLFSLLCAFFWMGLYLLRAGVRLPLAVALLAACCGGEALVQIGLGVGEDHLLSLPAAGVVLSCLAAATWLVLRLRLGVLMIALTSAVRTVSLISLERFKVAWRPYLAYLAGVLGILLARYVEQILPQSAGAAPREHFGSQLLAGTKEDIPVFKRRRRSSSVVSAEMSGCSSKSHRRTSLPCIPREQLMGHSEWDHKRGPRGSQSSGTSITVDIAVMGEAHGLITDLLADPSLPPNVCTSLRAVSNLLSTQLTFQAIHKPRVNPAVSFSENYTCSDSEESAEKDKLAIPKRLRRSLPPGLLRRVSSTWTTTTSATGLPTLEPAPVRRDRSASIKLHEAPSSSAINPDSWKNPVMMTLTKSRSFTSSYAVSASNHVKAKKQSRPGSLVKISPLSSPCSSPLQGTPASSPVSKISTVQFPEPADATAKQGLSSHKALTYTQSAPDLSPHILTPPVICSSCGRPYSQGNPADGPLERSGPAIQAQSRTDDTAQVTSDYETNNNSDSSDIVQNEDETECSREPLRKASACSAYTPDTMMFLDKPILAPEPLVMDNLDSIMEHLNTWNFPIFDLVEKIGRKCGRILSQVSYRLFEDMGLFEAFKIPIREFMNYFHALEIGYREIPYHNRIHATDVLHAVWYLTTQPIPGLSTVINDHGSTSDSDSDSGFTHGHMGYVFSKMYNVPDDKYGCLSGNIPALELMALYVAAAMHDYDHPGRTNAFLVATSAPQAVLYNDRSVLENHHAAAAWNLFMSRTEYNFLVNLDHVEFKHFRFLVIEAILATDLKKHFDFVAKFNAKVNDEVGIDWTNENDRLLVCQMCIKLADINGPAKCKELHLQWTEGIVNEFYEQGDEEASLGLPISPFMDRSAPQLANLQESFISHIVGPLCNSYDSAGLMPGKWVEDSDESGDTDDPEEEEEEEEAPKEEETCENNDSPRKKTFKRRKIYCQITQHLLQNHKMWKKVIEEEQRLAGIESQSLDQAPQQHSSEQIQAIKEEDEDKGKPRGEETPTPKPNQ
Protocol: (§1) Inhibition of PDE by 1,8-naphthyridin-2-one derivative
(§2) The centrifugation supernatant of the homogenate of pig ventricular muscle was separated into isozyme by ortho-(diethylaminoethyl)-cellulose chromatography and used as an enzyme source. Respective isozymes were confirmed by the reaction with respective activity regulators. [^3 H]-cAMP was used as a substrate and the reaction was carried out in the presence of 5'-nucleotidase. A sample was dissolved in dimethyl sulfoxide and added to the reaction mixture. [^3 H]-5'-AMP produced by PDE was decomposed into [^3 H]-adenosine by 5'-nucleotidase. An anion exchange resin was added to adsorb the unreacted [^3 H]-cAMP, whereby the reaction was stopped. The [^3 H]-adenosine radioactivity of the supernatant was determined, based on which the PDE inhibitory action was calculated.

PDE isozyme II = molecular target: T2, PDE isozyme II (Sus scrofa, UniProt F1SUV3); assay: Inhibition of PDE (isozyme II); format: biochemical; details: pig ventricular muscle, [3H]-cAMP substrate; read-out: PDE Inhibitory activity (IC5 :μM), PDE isozyme II
T2 construct: centrifugation supernatant of the homogenate of pig ventricular muscle; from tissue; host or cells: pig ventricular muscle, supernatant of homogenate, DEAE-cellulose fraction
T2 sequence (F1SUV3 1-945): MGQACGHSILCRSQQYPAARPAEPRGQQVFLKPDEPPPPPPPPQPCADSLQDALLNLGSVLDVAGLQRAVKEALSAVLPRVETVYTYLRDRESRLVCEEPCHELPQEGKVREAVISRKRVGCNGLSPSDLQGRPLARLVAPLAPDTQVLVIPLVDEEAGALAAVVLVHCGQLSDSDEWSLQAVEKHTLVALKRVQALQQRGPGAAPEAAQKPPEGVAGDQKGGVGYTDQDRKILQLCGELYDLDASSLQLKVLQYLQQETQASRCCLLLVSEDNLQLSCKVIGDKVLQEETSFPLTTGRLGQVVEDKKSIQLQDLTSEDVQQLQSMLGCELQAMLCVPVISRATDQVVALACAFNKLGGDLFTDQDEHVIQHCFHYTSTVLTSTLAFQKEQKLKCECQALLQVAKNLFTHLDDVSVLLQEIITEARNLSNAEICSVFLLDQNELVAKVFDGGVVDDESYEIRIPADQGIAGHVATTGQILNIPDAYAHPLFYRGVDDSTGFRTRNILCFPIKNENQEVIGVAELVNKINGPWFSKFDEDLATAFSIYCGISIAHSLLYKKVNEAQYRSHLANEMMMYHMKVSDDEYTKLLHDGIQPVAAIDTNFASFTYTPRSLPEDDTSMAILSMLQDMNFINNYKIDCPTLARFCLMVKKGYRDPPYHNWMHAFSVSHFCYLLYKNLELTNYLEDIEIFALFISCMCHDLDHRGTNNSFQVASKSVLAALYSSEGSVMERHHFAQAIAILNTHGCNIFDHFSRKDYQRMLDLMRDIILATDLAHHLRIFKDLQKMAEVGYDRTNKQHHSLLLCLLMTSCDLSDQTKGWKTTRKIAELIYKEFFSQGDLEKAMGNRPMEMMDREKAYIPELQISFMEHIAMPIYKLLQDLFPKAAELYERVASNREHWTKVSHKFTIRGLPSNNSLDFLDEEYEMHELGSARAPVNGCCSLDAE
Protocol: as §1, §2

[1] = test system: leukotriene D4-induced contraction of bronchial specimen; assay: Suppression of leukotriene D4-induced contraction of bronchial specimen extracted from guinea pig; parameters: species or system guinea pig (male Hartley); details: leukotriene D4 1 nM
Protocol: (§3) Suppression of histamine or leukotriene D4 -induced contraction of bronchial specimen extracted from guinea pig
(§4) Male Hartley guinea pigs weighing 250-450 g were fainted by hitting in the head and exsanguinated to death. The trachea was removed and ring specimens were prepared by a conventional method. The specimens were kept at 37° C. and suspended in a Krebs-Ringer solution (10 ml) aerated with a 95% O2 -5% CO2 mixed gas, and isometric tension was measured. The specimens were contracted with histamine (3 μM) or leukotriene D4 (1 nM). When the reaction became stable, a drug dissolved in dimethyl sulfoxide was added to the Kreb's Ringer solution. The relaxation ratio was calculated based on the base line before the contraction, which was taken as 100% relaxation.

PDE isozyme IV = assay: Inhibition of PDE (isozyme IV); format: biochemical; details: pig ventricular muscle, [3H]-cAMP substrate; read-out: PDE Inhibitory activity (IC5 :μM), PDE isozyme IV
Protocol: as §1, §2

PDE isozyme I = assay: Inhibition of PDE (isozyme I); format: biochemical; details: pig ventricular muscle, [3H]-cAMP substrate; read-out: PDE Inhibitory activity (IC5 :μM), PDE isozyme I
Protocol: as §1, §2

[2] = test system: histamine-induced contraction of bronchial specimen; assay: Suppression of histamine-induced contraction of bronchial specimen extracted from guinea pig; parameters: species or system guinea pig (male Hartley); details: histamine 3 μM
Protocol: as §3, §4

[3] = test system: endothelin-induced contraction of extracted pig coronary artery; assay: Suppression of endothelin-induced contraction in extracted pig coronary artery; details: 10 μM
Protocol: Suppression of endothelin-induced contraction in extracted pig coronary artery
Rectangular specimens of pig left anterior descendens coronary artery (endothelial cells removed) were used. The specimens were heated to 37° C. and suspended in a Tyrode's solution (10 ml) aerated with a 95% O2 -5% CO2 mixed gas under the resting tension of 1.5 g, and changes in isometric tension were determined. The specimens were contracted with 10 nM endothelin and when the reaction became stable, a drug dissolved in dimethyl sulfoxide was added to the. Tyrode's solution. The relaxation ratio was calculated relative to the base line before the contraction, which was taken as 100% relaxation. The representative test results of Compound 2 (administration concentration: 10 μM) are shown.

endothelin [4] = assay: Prevention of lethal effect on mice induced by intravenous administration of endothelin; format: in vivo, mice (male ICR)
Protocol: Prevention of lethal effect on mice induced by intravenous administration of endothelin
Male ICR mice (6-7 weeks of age) were used without anesthetization. A solvent (physiological saline or 0.5% carboxymethylcellulose in physiological saline) or a medium, in which a drug had been dissolved or suspended, was administered in a dose of 50 μl /10 g body weight via the tail vein of the mice. Five minutes later, 5 nmol/kg of endothelin (Peptide Institute) dissolved in the same amount of a solvent was intravenously administered. The mice were monitored for 60 minutes after the endothelin administration and the number of dead animals and the latency (seconds) until death were determined. […] The test results of Compound 2 are representatively shown.

Acute toxicity in mice = format: in vivo, mice (ICR); details: mouse, in vivo, po, mice; estimated; read-out: oral lethal dose 50% (LD50)
Protocol: (§5) Acute toxicity of 1,8-naphthyridin-2-one derivative in mice
(§6) ICR mice (6-8 weeks of age, 7 per group) were fasted overnight and used for the experiment. A solvent (0.5% aqueous solution of carboxymethylcellulose) or a medium, in which a drug had been dissolved or suspended, was orally administered to mice in a dose of 0.1 ml/10 g body weight, and life or death of the animals was monitored for 72 hours after the administration. The representative test results of Compound 2 (300 mg/kg p.o.) are shown.

mice = assay: Acute toxicity in mice; format: in vivo, mice (ICR); details: 300 mg/kg p.o., 72 hours
Protocol: as §5, §6

endothelin [5] = assay: Effect against endothelin-induced pressor activity in rats; format: in vivo, rats (male SD); details: 10 mg/kg i.v., 10 min after endothelin 1 nmol/kg; blood pressure 20 min after endothelin
Protocol: Effect against endothelin-induced pressor activity in rats
Male SD rats (6 to 8 weeks of age) were anesthetized with sodium pentobarbital (60 mg/kg, i.p.), and a polyethylene catheter was inserted in the left carotid artery, which was connected to a pressure transducer (TP-400T, manufactured by Nihon Koden), and the blood pressure was measured via a polygraph (RM-6000 manufactured by Nihon Koden).
The pressor activity was induced by administering endothelin (1 nmol/kg) dissolved in a solvent, from the femoral vein. With regard to the animals ascertained to have increased blood pressure, a solvent or a medium, in which a drug had been dissolved or suspended, was administered in a dose of 1 ml/kg from the femoral vein of the rats 10 minutes after the endothelin administration, and the pressor activity was observed thereafter. The representative test results of Compound 2 are shown.
The results are shown in Table 14. in the Table, changes in blood pressure 20 minutes after the endothelin administration was compared with the value obtained before the endothelin administration.

Compound	IC50 (PDE isozyme III) [µM]	IC50 (PDE isozyme II) [µM]	Suppression of contraction % (LT) ([1]; 10 μM) [%]	IC50 (PDE isozyme IV) [µM]	IC50 (PDE isozyme I) [µM]	Suppression of contraction % (HS) ([2]; 10 μM) [%]	suppressive action on the endothelin-induced contraction [3]	Suppression % of endothelin-induced contraction ([3]; contracted with 10 nM endothelin, endothelial cells removed) [%]	Prevention of death: suppression of death (%) (endothelin [4]; 30 mg/kg i.v., 5 min before endothelin 5 nmol/kg i.v., 60 min monitoring)	Prevention of death: prolongation of latency (%) (endothelin [4]; 30 mg/kg i.v., 5 min before endothelin 5 nmol/kg i.v., ** P<0.01 relative to control, Tukey)	suppression of the death caused by endothelin and prolonging action of the latency until death (endothelin [4]; i.v.)	LD50 at 72 h (Acute toxicity in mice) [mg/kg]	Death (number of animals) (mice; 7 animals administered)	acute toxicity test result (mice)	Endothelin-induced pressor activity, Suppression % (endothelin [5]) [%]	Suppression of contraction % (LT) ([1]; 1 μM) [%]	Suppression of contraction % (HS) ([2]; 1 μM) [%]
Cc1ccccc1-c1cc2cccnc2n(Cc2ccccc2F)c1=O [Compound 1, 1-(2-fluorobenzyl)-3-(2-methylphenyl)-1,8-naphthyridin-2(1H)-one]	> 50	> 50	88	0.4	> 50	100	–	–	–	–	–	–	–	–	–	–	–
Cn1c(=O)c(-c2ccccc2)cc2cccnc21 [Compound 2]	> 50	39	–	1.6	29	93	showed evident suppressive action	74	52	305	showed suppression of the death caused by endothelin and a prolonging action of the latency until death	≥ 300	0	tested negative in the acute toxicity test	38.5	–	–
O=c1c(-c2ccccn2)cc2cccnc2n1CC1CC1 [Compound 3]	80	18	–	1.4	66	–	–	–	–	–	–	–	–	–	–	100	60
C=CCn1c(=O)c(-c2ccc(OC)cc2)cc2cccnc21 [Compound 4]	44	> 50	100	0.38	49	100	–	–	–	–	–	–	–	–	–	–	–
CC(C)CCn1c(=O)c(-c2ccc(Cl)cc2)cc2cccnc21 [Compound 5]	> 50	> 50	–	0.35	> 50	–	–	–	–	–	–	–	–	–	–	–	–
